{
  "source": "paper PMC11869428",
  "about": "(Microbial Cell Factories, 2025)",
  "biological_target": "T1, GenP (Micromonospora echinospora, UniProt A0A1C4WLH3)",
  "T1 sequence (A0A1C4WLH3 1-268)": "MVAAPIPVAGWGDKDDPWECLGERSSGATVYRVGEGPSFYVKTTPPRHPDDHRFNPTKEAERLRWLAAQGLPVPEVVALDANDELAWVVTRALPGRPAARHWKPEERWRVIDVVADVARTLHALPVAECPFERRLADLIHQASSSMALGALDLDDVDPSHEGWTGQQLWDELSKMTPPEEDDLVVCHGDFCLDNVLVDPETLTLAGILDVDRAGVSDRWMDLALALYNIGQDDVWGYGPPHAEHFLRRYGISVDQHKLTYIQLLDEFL",
  "experiment": "preparative phosphorylation, HPLC-ELSD",
  "type": "biochemical",
  "conditions": "ATP […], MgCl2 […], Tris […] pH […] °C, […] h",
  "data": [
    {"compound": "CN[C@@H]1[C@@H](O)[C@@H](O[C@@H]2[C@@H](O)[C@H](O[C@H]3O[C@H](CN)[C@@H](O)[C@H](O)[C@H]3N)[C@@H](N)C[C@H]2N)OC[C@]1(C)O", "note": "[JI-20A]", "values": [
      {"measurement": "preparative phosphorylation, HPLC-ELSD", "value": "JI-20A-P, JI-20Ba-P, and JI-20B-P were obtained through the catalysis of GenP"}
    ]}
  ]
}
